# Measured values: patent publication US9597416B2, “Fluorescent membrane intercalating probes and methods for their use” (PHANOS TECHNOLOGIES, INC., priority 2005, dated 2017)
# Experiments:
# [1] = Absorbance/emission spectra in ethanol; format: physicochemical; settings: for Abs Max / Flourescence Ex Max / Fluorescence Em Max: 0.25 μM solutions in ethanol; for Extinction Coefficient: ethanol, approximate, maximum absorbance divided by nominal concentration
# Protocol: Referring now to Tables 1 and 2, there are shown the absorbance and emission maxima of some example compounds of the present invention. Absorption and Fluorescence spectra were run using 0.25 μM solutions in ethanol on a Jasco, Inc. UV-530 UV/VIS spectrophotometer and FP 750 spectrofluorometer, respectively. Approximate extinction coefficients were estimated from the absorbance scans by dividing the maximum absorbance by the nominal concentration ([…]).
# [2] = Solubility in Diluent C vs ethanol control; format: physicochemical; settings: 1:50 dilution of 1 mM stock, 30 min room temperature, centrifuged, % of absorbance of 100% ethanol control
# Protocol: Effects of the various combinations of asymmetrical and symmetrical side chains and methine bridges on the solubility of the compounds of the present invention were examined. Solubility in a commercially available probe diluent. Diluent C, was also tested. Triplicate 1:50 dilutions of stock 1 mM probe solutions were made in either ethanol or test diluent. After 30 minutes at room temperature solutions were centrifuged at 10,000×g for 10 minutes to remove any microagregates and 100 ul aliquots were transferred to 2.0 ml of ethanol for absorbance determinations. Based on the teachings of Leung et al. and on solubility specifications found on Sigma Certificates of Analysis for the commercial diluent (diluent supernatant absorbance at 30 minutes at least 60% of ethanol supernatant absorbance after 30 minutes), a preliminary specification at least 60% of the ethanol control was set as a surrogate for solubility sufficient to achieve cell labeling with S/N ratios greater than 100 and to minimize potential problems with brightness or reproducibility of labeling. Certain example compounds were soluble after 30 minutes in Diluent C.
# Diluent C is a commercially available isotonic salt-free vehicle (Sigma-Aldrich Chemical Company) that is commonly used.
# U937 cells = test: Probe effects on cell viability and cell growth (Maximum Tolerated Concentration); format: cell-based; settings: for Maximum Tolerated Concentration (MTC): cultured U937 cells, 10^7 cells/ml, labeled 5 min in Diluent C, cultured 22-24 hours
# Protocol: U937 cells were stained at a concentration of 10^7 cells/ml with increasing concentrations of probe by rapidly admixing 2× cells suspended in Diluent C with 2× probe in Diluent C. After 5 minutes at room temperature, the staining was stopped by the addition of cell culture medium. Cells were then washed thoroughly and cultured under standard conditions for 22-24 hours. Cell numbers were compared to those in a control culture treated with diluent alone.
# Cells labeled with both dyes were also monitored daily for changes in mean fluorescence intensity (MFI), using a FACSAria flow cytometer with 488 nm excitation for PKH26 and 405 nm excitation for F305B. […] However, initial MFI's were high enough to detect at least 4 and possibly 5 or 6 cell doublings before the fluorescence intensity distribution of labeled cells began to overlap substantially with that of unstained cells. Color overlap of F305B into filter windows used for detection of 488 nm or 633 nm excited dyes was minimal. Since 405 nm excited dyes are less commonly available than 488 nm and 633 nm excited dyes of this nature were therefore deemed useful, despite their somewhat lesser signal:noise ratio, for providing increased flexibility in choice of spectral window to be used for monitoring membrane labeled cells and their proliferation.
# Cells labeled with both dyes were also monitored daily for changes in mean fluorescence intensity (MFI), using a FACSCalibur flow cytometer with 488 nm excitation for PKH26 and 633 nm excitation for F308B.
# Cells labeled either with PKH26 or with F319B were also monitored daily for changes in mean fluorescence intensity (MFI), using a FACSAria flow cytometer with 488 nm excitation for PKH26 and 785 nm excitation for F319B. […] Although the cells could only be followed for 4-5 doublings when labeled with PKH26, at least 6 doublings could be monitored using F319B before the fluorescence intensity distribution of labeled cells began to overlap substantially with that of unstained cells. Color overlap of F319B was minimal in filter windows used for detection of fluorescein, phycoerthyrin (PE), allophycocyanin (APC), and PE-Texas Red, PE-Cy5 or PerCP-Cy5.5 tandem conjugate dyes.
# [3] = U937 cells stained at each dye's MTC, monitored daily for 4 days (approximately 4 doublings)
compound,measurement,setting,value
CCCCCCCCCCCCCCCCCCCCCC[N+]1=C(/C=C/C=C/C=C/C=C2/N(CCCCCCCCCCCCCC)c3ccc4ccccc4c3C2(C)C)C(C)(C)c2c1ccc1ccccc21.[I-] [Compound F277A],Abs Max,[1],788 nm
same,Flourescence Ex Max,[1],790 nm
same,Fluorescence Em Max,[1],814 nm
same,Extinction Coefficient,[1],"205,400 M^−1cm^−1"
same,Solubility >60% of EtOH Control @ 30 min,[2],95%
CCCCCCCCCCCCCCCCN1/C(=C\C=C\c2oc3ccc(C(C)(C)C)cc3[n+]2CCCCCCCCCCCCCCCC)Oc2ccc(C(C)(C)C)cc21.[I-] [Compound F304B],Abs Max,[1],493 nm
same,Flourescence Ex Max,[1],494 nm
same,Fluorescence Em Max,[1],508 nm
same,Extinction Coefficient,[1],"160,000 M^−1cm^−1"
CCCCCCCCCCCCCCCCCCCCCC[n+]1c(/C=C2\Sc3ccccc3N2CCCCCCCCCCCCCC)sc2ccccc21.[I-] [Compound F305B],Abs Max,[1],425 nm
same,Flourescence Ex Max,[1],420 nm
same,Fluorescence Em Max,[1],461 nm
same,Extinction Coefficient,[1],"81,200 M^−1cm^−1"
same,cell growth compared with PKH26-stained cells,U937 cells; [3],comparable growth
same,Maximum Tolerated Concentration (MTC),U937 cells,20 µmol/L
CCCCCCCCCCCCCCCCCCN1/C(=C\C=C\c2oc3ccc(C(C)(C)C)cc3[n+]2CCCCCCCCCCCCCCCCCC)Oc2ccc(C(C)(C)C)cc21.[I-] [Compound F306B],Abs Max,[1],492 nm
same,Flourescence Ex Max,[1],493 nm
same,Fluorescence Em Max,[1],508 nm
same,Extinction Coefficient,[1],"135,000 M^−1cm^−1"
CCCCCCCCCCCCCCCCCCCCCC[N+]1=C(/C=C/C=C/C=C2/N(CCCCCCCCCCCCCC)c3ccc([N+](=O)[O-])cc3C2(C)C)C(C)(C)c2ccccc21.[I-] [Compound F308B],Abs Max,[1],649 nm
same,Flourescence Ex Max,[1],493 nm
same,Fluorescence Em Max,[1],671 nm
same,Extinction Coefficient,[1],"134,610 M^−1cm^−1"
same,cell growth compared with PKH26-stained cells,U937 cells; [3],comparable growth
same,Maximum Tolerated Concentration (MTC),U937 cells,15 µmol/L
CCCCCCCCCCCCCCCCCCCCCC[N+]1=C(/C=C/C=C/C=C/C=C2/N(CCCCCCCCCCCCCC)c3ccc([N+](=O)[O-])cc3C2(C)C)C(C)(C)c2ccccc21.[I-] [Compound F319B],Abs Max,[1],743 nm
same,Fluorescence Em Max,[1],776 nm
same,Extinction Coefficient,[1],"112,500 M^−1cm^−1"
same,cell growth compared with PKH26-stained cells,"U937 cells; U937 cells, F319B 12.5 micromol/L vs PKH26 12 micromol/L, monitored daily for 6 days",comparable growth
same,Maximum Tolerated Concentration (MTC),U937 cells,20 µmol/L
